# Source: the supplement of paper PMC10307832
# What was measured:
# Test in all cases: relative viability (nuclei count vs DMSO), 5 days (fraction); higher = more cells survive
# EPLC-272H = test system: EPLC-272H
# Summary of the method: (§1)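 Cells from lung cancer lines were seeded into 1536-well plates and, one day later, dosed by pin tool. Treatments were either a single drug or a fixed dose of an anchor drug with five library-drug doses (not always all listed) in √10 steps. After 5 days, nuclei were stained in a one-step fixation (final 0.05% Triton X-100, 1% formaldehyde, 1 ug/ml Hoechst) and counted on 4× images, and relative viability is the treated-to-vehicle nuclei ratio, as the median of duplicate plates.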
# H3255 = test system: H3255
# Summary of the method: as §1
# HARA = test system: HARA
# Summary of the method: as §1
# LC-2-ad = test system: LC-2-ad
# Summary of the method: as §1
# LOU-NH91 = test system: LOU-NH91
# Summary of the method: as §1
# NCI-H1650 = test system: NCI-H1650
# Summary of the method: as §1
# NCI-H1651 = test system: NCI-H1651
# Summary of the method: as §1
# NCI-H1975 = test system: NCI-H1975
# Summary of the method: as §1
# NCI-H2009 = test system: NCI-H2009
# Summary of the method: as §1
# NCI-H2023 = test system: NCI-H2023
# Summary of the method: as §1
# NCI-H2085 = test system: NCI-H2085
# Summary of the method: as §1
# NCI-H2087 = test system: NCI-H2087
# Summary of the method: as §1
# NCI-H2170 = test system: NCI-H2170
# Summary of the method: as §1
# NCI-H2228 = test system: NCI-H2228
# Summary of the method: as §1
# NCI-H23 = test system: NCI-H23
# Summary of the method: as §1
# NCI-H441 = test system: NCI-H441
# Summary of the method: as §1
# NCI-H650 = test system: NCI-H650
# Summary of the method: as §1
# NCI-H727 = test system: NCI-H727
# Summary of the method: as §1
# NCI-H838 = test system: NCI-H838
# Summary of the method: as §1
# PC-3 [JPC-3] = test system: PC-3 [JPC-3]
# Summary of the method: as §1
# SW 1573 = test system: SW 1573
# Summary of the method: as §1
# SW 900 = test system: SW 900
# Summary of the method: as §1
# UMC-11 = test system: UMC-11
# Summary of the method: as §1
smiles,measurement,setting,value
CCNC(=O)c1noc(-c2cc(C(C)C)c(O)cc2O)c1-c1ccc(CN2CCOCC2)cc1 [Luminespib] + CC(=O)Nc1cccc(-n2c(=O)n(C3CC3)c(=O)c3c(Nc4ccc(I)cc4F)n(C)c(=O)c(C)c32)c1 [Trametinib] (partner 0.02 µM),relative viability,EPLC-272H; first compound 0.002 µM,0.278
same,relative viability,EPLC-272H; first compound 0.006325 µM,0.309
same,relative viability,EPLC-272H; first compound 0.02 µM,0.212
same,relative viability,EPLC-272H; first compound 0.06325 µM,0.238
same,relative viability,EPLC-272H; first compound 0.2 µM,0.0855
same,relative viability,H3255; first compound 0.002 µM,0.549
same,relative viability,H3255; first compound 0.02 µM,0.405
same,relative viability,H3255; first compound 0.06325 µM,0.386
same,relative viability,H3255; first compound 0.2 µM,0.278
same,relative viability,HARA; first compound 0.002 µM,0.667
same,relative viability,HARA; first compound 0.006325 µM,0.614
same,relative viability,HARA; first compound 0.02 µM,0.471
same,relative viability,HARA; first compound 0.06325 µM,0.121
same,relative viability,HARA; first compound 0.2 µM,0.141
same,relative viability,LC-2-ad; first compound 0.002 µM,0.926
same,relative viability,LC-2-ad; first compound 0.006325 µM,0.903
same,relative viability,LC-2-ad; first compound 0.02 µM,1.06
same,relative viability,LC-2-ad; first compound 0.06325 µM,0.889
same,relative viability,LC-2-ad; first compound 0.2 µM,0.647
same,relative viability,LOU-NH91; first compound 0.002 µM,0.807
same,relative viability,LOU-NH91; first compound 0.006325 µM,0.775
same,relative viability,LOU-NH91; first compound 0.02 µM,0.6
same,relative viability,LOU-NH91; first compound 0.06325 µM,0.417
same,relative viability,LOU-NH91; first compound 0.2 µM,0.385
same,relative viability,NCI-H1650; first compound 0.002 µM,0.571
same,relative viability,NCI-H1650; first compound 0.006325 µM,0.565
same,relative viability,NCI-H1650; first compound 0.02 µM,0.178
same,relative viability,NCI-H1650; first compound 0.06325 µM,0.1
same,relative viability,NCI-H1650; first compound 0.2 µM,0.0947
same,relative viability,NCI-H1651; first compound 0.002 µM,0.787
same,relative viability,NCI-H1651; first compound 0.006325 µM,0.798
same,relative viability,NCI-H1651; first compound 0.02 µM,0.634
same,relative viability,NCI-H1651; first compound 0.06325 µM,0.754
same,relative viability,NCI-H1651; first compound 0.2 µM,0.609
same,relative viability,NCI-H1975; first compound 0.002 µM,0.349
same,relative viability,NCI-H1975; first compound 0.006325 µM,0.334
same,relative viability,NCI-H1975; first compound 0.02 µM,0.168
same,relative viability,NCI-H1975; first compound 0.06325 µM,0.107
same,relative viability,NCI-H1975; first compound 0.2 µM,0.118
same,relative viability,NCI-H2009; first compound 0.002 µM,0.271
same,relative viability,NCI-H2009; first compound 0.006325 µM,0.225
same,relative viability,NCI-H2009; first compound 0.02 µM,0.169
same,relative viability,NCI-H2009; first compound 0.06325 µM,0.0625
same,relative viability,NCI-H2009; first compound 0.2 µM,0.0698
same,relative viability,NCI-H2023; first compound 0.002 µM,0.49
same,relative viability,NCI-H2023; first compound 0.006325 µM,0.56
same,relative viability,NCI-H2023; first compound 0.02 µM,0.39
same,relative viability,NCI-H2023; first compound 0.06325 µM,0.0742
same,relative viability,NCI-H2023; first compound 0.2 µM,0.0679
same,relative viability,NCI-H2085; first compound 0.002 µM,0.535
same,relative viability,NCI-H2085; first compound 0.006325 µM,0.507
same,relative viability,NCI-H2085; first compound 0.02 µM,0.33
same,relative viability,NCI-H2085; first compound 0.06325 µM,0.202
same,relative viability,NCI-H2085; first compound 0.2 µM,0.241
same,relative viability,NCI-H2087; first compound 0.002 µM,0.197
same,relative viability,NCI-H2087; first compound 0.006325 µM,0.218
same,relative viability,NCI-H2087; first compound 0.02 µM,0.205
same,relative viability,NCI-H2087; first compound 0.06325 µM,0.146
same,relative viability,NCI-H2087; first compound 0.2 µM,0.11
same,relative viability,NCI-H2170; first compound 0.002 µM,0.915
same,relative viability,NCI-H2170; first compound 0.006325 µM,0.932
same,relative viability,NCI-H2170; first compound 0.06325 µM,0.896
same,relative viability,NCI-H2170; first compound 0.2 µM,0.841
same,relative viability,NCI-H2228; first compound 0.002 µM,0.512
same,relative viability,NCI-H2228; first compound 0.006325 µM,0.336
same,relative viability,NCI-H2228; first compound 0.02 µM,0.133
same,relative viability,NCI-H2228; first compound 0.06325 µM,0.0941
same,relative viability,NCI-H2228; first compound 0.2 µM,0.106
same,relative viability,NCI-H23; first compound 0.002 µM,0.397
same,relative viability,NCI-H23; first compound 0.006325 µM,0.424
same,relative viability,NCI-H23; first compound 0.02 µM,0.333
same,relative viability,NCI-H23; first compound 0.06325 µM,0.13
same,relative viability,NCI-H23; first compound 0.2 µM,0.156
same,relative viability,NCI-H441; first compound 0.002 µM,0.555
same,relative viability,NCI-H441; first compound 0.006325 µM,0.465
same,relative viability,NCI-H441; first compound 0.02 µM,0.271
same,relative viability,NCI-H441; first compound 0.06325 µM,0.0929
same,relative viability,NCI-H441; first compound 0.2 µM,0.11
same,relative viability,NCI-H650; first compound 0.002 µM,1.06
same,relative viability,NCI-H650; first compound 0.006325 µM,0.881
same,relative viability,NCI-H650; first compound 0.02 µM,0.629
same,relative viability,NCI-H650; first compound 0.06325 µM,0.262
same,relative viability,NCI-H650; first compound 0.2 µM,0.086
same,relative viability,NCI-H727; first compound 0.002 µM,0.422
same,relative viability,NCI-H727; first compound 0.006325 µM,0.397
same,relative viability,NCI-H727; first compound 0.02 µM,0.404
same,relative viability,NCI-H727; first compound 0.06325 µM,0.247
same,relative viability,NCI-H727; first compound 0.2 µM,0.253
same,relative viability,NCI-H838; first compound 0.002 µM,0.582
same,relative viability,NCI-H838; first compound 0.006325 µM,0.474
same,relative viability,NCI-H838; first compound 0.02 µM,0.294
same,relative viability,NCI-H838; first compound 0.06325 µM,0.093
same,relative viability,NCI-H838; first compound 0.2 µM,0.134
same,relative viability,PC-3 [JPC-3]; first compound 0.002 µM,0.75
same,relative viability,PC-3 [JPC-3]; first compound 0.006325 µM,0.682
same,relative viability,PC-3 [JPC-3]; first compound 0.02 µM,0.517
same,relative viability,PC-3 [JPC-3]; first compound 0.06325 µM,0.505
same,relative viability,PC-3 [JPC-3]; first compound 0.2 µM,0.457
same,relative viability,SW 1573; first compound 0.002 µM,0.604
same,relative viability,SW 1573; first compound 0.006325 µM,0.483
same,relative viability,SW 1573; first compound 0.02 µM,0.198
same,relative viability,SW 1573; first compound 0.06325 µM,0.105
same,relative viability,SW 1573; first compound 0.2 µM,0.096
same,relative viability,SW 900; first compound 0.002 µM,0.837
same,relative viability,SW 900; first compound 0.006325 µM,0.919
same,relative viability,SW 900; first compound 0.02 µM,0.659
same,relative viability,SW 900; first compound 0.06325 µM,0.165
same,relative viability,SW 900; first compound 0.2 µM,0.131
same,relative viability,UMC-11; first compound 0.002 µM,0.496
same,relative viability,UMC-11; first compound 0.006325 µM,0.685
same,relative viability,UMC-11; first compound 0.02 µM,0.308
same,relative viability,UMC-11; first compound 0.06325 µM,0.212
same,relative viability,UMC-11; first compound 0.2 µM,0.157
